Two compounds from article PMC3640040, “Partial Agonism of Taurine at Gamma-Containing Native and Recombinant GABAA Receptors” (PLoS ONE, 2013) can be followed below.

One assay has as its target T1, α2β3δ (Mus musculus; Homo sapiens, UniProt P26048+P28472).
T1 construct: gene Gabra2; ternary GABA-A receptor, mouse alpha2 + human beta3 + human delta; Xenopus oocytes, cRNA ratio 10:1:10; with Gamma-aminobutyric acid receptor subunit delta
T1 sequence (P26048 29-451): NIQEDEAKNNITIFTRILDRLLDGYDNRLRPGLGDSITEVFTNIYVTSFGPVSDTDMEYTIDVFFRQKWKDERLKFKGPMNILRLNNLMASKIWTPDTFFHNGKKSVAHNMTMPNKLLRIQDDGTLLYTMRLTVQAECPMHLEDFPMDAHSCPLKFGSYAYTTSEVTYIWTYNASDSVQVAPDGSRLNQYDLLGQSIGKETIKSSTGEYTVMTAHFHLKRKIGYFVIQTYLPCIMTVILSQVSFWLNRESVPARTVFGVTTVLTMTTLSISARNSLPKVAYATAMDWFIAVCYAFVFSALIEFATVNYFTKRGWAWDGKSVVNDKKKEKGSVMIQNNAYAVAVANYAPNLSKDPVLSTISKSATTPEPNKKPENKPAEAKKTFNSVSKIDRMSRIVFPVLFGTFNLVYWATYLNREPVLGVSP
T1 sequence (P28472 26-473): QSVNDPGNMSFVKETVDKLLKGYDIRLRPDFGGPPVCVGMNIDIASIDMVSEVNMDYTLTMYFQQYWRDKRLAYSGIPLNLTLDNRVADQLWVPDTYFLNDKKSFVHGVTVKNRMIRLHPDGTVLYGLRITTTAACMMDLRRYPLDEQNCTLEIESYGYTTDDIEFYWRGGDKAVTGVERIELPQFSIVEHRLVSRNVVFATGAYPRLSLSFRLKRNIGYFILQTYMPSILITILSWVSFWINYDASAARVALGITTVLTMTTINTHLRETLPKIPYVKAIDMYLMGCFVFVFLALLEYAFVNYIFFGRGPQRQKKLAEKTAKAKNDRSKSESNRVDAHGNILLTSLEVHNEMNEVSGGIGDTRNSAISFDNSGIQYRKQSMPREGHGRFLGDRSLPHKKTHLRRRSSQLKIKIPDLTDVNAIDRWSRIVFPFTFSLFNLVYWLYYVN
T1 sequence (O14764 25-452 partner): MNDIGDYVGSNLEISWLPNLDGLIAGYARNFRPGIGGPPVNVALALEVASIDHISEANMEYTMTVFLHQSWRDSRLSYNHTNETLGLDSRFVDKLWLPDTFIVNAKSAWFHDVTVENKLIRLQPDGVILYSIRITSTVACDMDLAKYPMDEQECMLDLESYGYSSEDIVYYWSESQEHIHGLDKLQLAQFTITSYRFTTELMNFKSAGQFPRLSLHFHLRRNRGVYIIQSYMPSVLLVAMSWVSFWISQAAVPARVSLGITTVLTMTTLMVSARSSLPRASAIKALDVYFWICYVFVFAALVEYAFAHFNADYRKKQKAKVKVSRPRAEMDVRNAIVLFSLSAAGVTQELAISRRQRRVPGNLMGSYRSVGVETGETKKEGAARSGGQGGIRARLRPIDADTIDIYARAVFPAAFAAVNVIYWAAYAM
Kind of assay: two-electrode voltage clamp, Xenopus oocytes. Format: cell-based. The note with it: read-out: Taurine / EC50.

For a further assay, the target named is T2, α2β1 (Mus musculus; Rattus norvegicus, UniProt P15431+P26048).
T2 construct: gene Gabra2; binary GABA-A receptor, mouse alpha2 + rat beta1; Xenopus oocytes
Nature of the assay: two-electrode voltage clamp, Xenopus oocytes. Format: cell-based. The note with it: read-out: Taurine / EC50. An excerpt: two-electrode voltage clamp, Xenopus oocytes on α2β1

The next assay addresses T3, α2β3γ2 (Mus musculus; Homo sapiens, UniProt P22723+P26048+P28472).
T3 construct: gene Gabra2; ternary GABA-A receptor, mouse alpha2 + human beta3 + mouse gamma2L; Xenopus oocytes, cRNA ratio 10:1:10; agonist site alpha/beta, zolpidem site alpha/gamma
Nature of the assay: two-electrode voltage clamp, Xenopus oocytes. Format: cell-based. The conditions noted are these: read-out: Taurine / EC50.

The next assay concerns the target T4, α2β3 (Mus musculus; Homo sapiens, UniProt P26048+P28472).
T4 construct: gene Gabra2; binary GABA-A receptor, mouse alpha2 + human beta3; Xenopus oocytes
T4 sequence (P26048 29-451): T1 sequence (P26048 29-451)
T4 sequence (P28472 26-473): T1 sequence (P28472 26-473)
Nature of the assay: two-electrode voltage clamp, Xenopus oocytes. In kind it is cell-based. The conditions noted are these: read-out: Taurine / EC50.

A further assay has as its target T5, α2β1δ (Rattus norvegicus; Mus musculus; Homo sapiens, UniProt P15431+P26048).
T5 construct: gene Gabra2; ternary GABA-A receptor, mouse alpha2 + rat beta1 + human delta; Xenopus oocytes, cRNA ratio 10:1:10; with Gamma-aminobutyric acid receptor subunit delta
Nature of the assay: two-electrode voltage clamp, Xenopus oocytes. In kind it is cell-based. The conditions noted are these: read-out: Taurine / EC50.

For a further assay, the target named is T6, α2β1γ2 (δ74–79) (Mus musculus; Rattus norvegicus, UniProt P15431+P26048).
T6 construct: gene Gabra2; mouse alpha2 + rat beta1 + mouse gamma2L with IDIFFA (74-79) replaced by delta motif MTVFLH; printed primers also encode T81S and Y83R, text names 74-79 only; Xenopus oocytes; with Gamma-aminobutyric acid receptor subunit gamma-2
Nature of the assay: two-electrode voltage clamp, Xenopus oocytes. The note with it: read-out: Taurine / EC50. In kind it is cell-based. An excerpt:
two-electrode voltage clamp, Xenopus oocytes on α2β1γ2 (δ74–79)

In another assay the target is T7, α2β1γ2 (Rattus norvegicus; Mus musculus, UniProt P15431+P26048).
T7 construct: gene Gabra2; ternary GABA-A receptor, mouse alpha2 + rat beta1 + mouse gamma2L; Xenopus oocytes, cRNA ratio 10:1:10; with Gamma-aminobutyric acid receptor subunit gamma-2
Kind of assay: two-electrode voltage clamp, Xenopus oocytes. Format: cell-based. The conditions noted are these: read-out: Taurine / EC50.

A further assay addresses T8, α2β3γ2 (δ74–79) (Mus musculus; Homo sapiens, UniProt P22723+P26048+P28472, P22723:A117H/P22723:D113T/P22723:F116L/P22723:I112M/P22723:I114V/P22723:T119S/P22723:Y121R).
T8 construct: gene Gabra2
T8 sequence (P26048 29-451): T1 sequence (P26048 29-451)
T8 sequence (P28472 26-473): T1 sequence (P28472 26-473)
T8 sequence (P22723 39-474 I112M/D113T/I114V/F116L/A117H/T119S/Y121R): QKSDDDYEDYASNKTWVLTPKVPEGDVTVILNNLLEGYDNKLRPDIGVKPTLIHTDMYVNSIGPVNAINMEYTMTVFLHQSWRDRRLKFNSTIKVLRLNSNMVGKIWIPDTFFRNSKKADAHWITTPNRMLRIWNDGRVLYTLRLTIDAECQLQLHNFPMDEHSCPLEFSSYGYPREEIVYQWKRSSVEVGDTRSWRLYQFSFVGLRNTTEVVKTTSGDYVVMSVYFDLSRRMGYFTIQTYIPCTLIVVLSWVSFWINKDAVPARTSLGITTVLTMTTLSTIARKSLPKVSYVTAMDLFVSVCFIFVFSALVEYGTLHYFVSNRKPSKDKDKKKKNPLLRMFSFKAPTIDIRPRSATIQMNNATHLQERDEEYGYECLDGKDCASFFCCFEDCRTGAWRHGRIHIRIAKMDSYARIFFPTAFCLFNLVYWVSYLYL
Nature of the assay: cell-based. The note with it: read-out: % of control GABA current at 1 μM.

T6 sequence (P15431 26-474, one chain of several): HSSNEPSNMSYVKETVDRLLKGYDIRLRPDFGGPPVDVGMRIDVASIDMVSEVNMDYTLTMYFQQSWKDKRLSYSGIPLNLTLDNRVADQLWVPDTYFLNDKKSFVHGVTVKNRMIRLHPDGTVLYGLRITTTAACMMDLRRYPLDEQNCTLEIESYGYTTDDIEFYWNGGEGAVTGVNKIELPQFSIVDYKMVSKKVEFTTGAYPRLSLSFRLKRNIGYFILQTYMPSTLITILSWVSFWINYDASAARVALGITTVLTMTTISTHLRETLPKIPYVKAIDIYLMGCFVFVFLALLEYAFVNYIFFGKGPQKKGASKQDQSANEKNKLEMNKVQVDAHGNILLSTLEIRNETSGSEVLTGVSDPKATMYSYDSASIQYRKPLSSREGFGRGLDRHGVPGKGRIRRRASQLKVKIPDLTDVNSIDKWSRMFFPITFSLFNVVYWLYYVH
T3 sequence (P22723 39-474, one chain of several): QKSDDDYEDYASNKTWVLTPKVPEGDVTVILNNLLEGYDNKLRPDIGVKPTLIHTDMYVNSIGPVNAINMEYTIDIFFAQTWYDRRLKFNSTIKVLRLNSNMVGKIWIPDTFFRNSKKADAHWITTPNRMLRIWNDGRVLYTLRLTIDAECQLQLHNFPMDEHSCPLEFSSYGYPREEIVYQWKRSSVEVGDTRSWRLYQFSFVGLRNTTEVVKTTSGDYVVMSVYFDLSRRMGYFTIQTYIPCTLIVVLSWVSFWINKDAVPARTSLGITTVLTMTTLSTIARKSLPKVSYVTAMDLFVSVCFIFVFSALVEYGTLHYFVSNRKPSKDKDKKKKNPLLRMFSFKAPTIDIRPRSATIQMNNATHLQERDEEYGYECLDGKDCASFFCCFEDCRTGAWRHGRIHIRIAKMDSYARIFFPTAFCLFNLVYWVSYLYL
T5 sequence (P15431 26-474, one chain of several): as the sequence (P15431 26-474, one chain of several) above
T2 sequence (P15431 26-474, one chain of several): as above
T7 sequence (P26048 29-451 F77I): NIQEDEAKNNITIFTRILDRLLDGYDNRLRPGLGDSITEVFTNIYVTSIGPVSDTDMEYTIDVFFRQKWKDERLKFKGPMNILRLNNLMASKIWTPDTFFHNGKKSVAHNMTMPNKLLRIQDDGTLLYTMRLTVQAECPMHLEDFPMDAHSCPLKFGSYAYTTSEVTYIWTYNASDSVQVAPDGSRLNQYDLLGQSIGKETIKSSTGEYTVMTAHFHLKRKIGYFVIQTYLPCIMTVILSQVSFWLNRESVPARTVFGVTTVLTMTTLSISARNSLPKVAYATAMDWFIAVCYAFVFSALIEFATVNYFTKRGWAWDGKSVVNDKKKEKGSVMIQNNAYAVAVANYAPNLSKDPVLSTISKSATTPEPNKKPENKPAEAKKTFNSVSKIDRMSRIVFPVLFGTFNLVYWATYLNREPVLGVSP
T7 sequence (P15431 26-474): as the sequence (P15431 26-474, one chain of several) above
T7 sequence (P22723 39-474 partner): as the sequence (P22723 39-474, one chain of several) above

For the compound `NCCS(=O)(=O)O` [taurine, 2-aminoethane sulfonic acid], the EC50 was determined as 35.4 ± 2 mM on α2β3δ; 81.8 ± 24.9 mM on α2β1; 51.2 ± 19.8 mM at α2β3γ2; 24.5 ± 11.2 mM at α2β3; 67.8 ± 15.9 mM at α2β1δ; 40.5 ± 6.9 mM at α2β1γ2 (δ74–79). The EC50 at α2β1γ2 is 76.1 ± 3.9 mM.
Turning to `Cc1ccc(-c2nc3ccc(C)cn3c2CC(=O)N(C)C)cc1` [zolpidem], at α2β3γ2 (δ74–79), the remaining activity at 1 µM came to 97 ± 7%.
